Measurements taken from ChEMBL document CHEMBL5154804, “Species-Selective Targeting of Fungal Hsp90: Design, Synthesis, and Evaluation of Novel 4,5-Diarylisoxazole Derivatives for the Combination Treatment of Azole-Resistant Candidiasis” (J Med Chem, 2022).

How the values were obtained:
[1] = Metabolic stability in human liver microsomes assessed as intrinsic clearance in presence of NADPH cofactor under shaking condition for 10 mins measured after 5 to 60 mins by LC-MS/MS analysis; assay type: ADME, Microsome; conditions: time 15-70 min
[2] = Metabolic stability in human liver microsomes assessed as microsomal intrinsic clearance in presence of NADPH cofactor under shaking condition for 10 mins measured after 5 to 60 mins by LC-MS/MS analysis; assay type: ADME, Microsome; conditions: time 15-70 min
[3] = Metabolic stability in human liver microsomes assessed as compound remaining in presence of NADPH cofactor under shaking condition for 10 mins measured after 60 mins by LC-MS/MS analysis; assay type: ADME, Microsome; conditions: time 70 min, read-out: Stability
[4] = Metabolic stability in human liver microsomes assessed as half life in presence of NADPH cofactor under shaking condition for 10 mins measured after 5 to 60 mins by LC-MS/MS analysis; assay type: ADME, Microsome; conditions: time 15-70 min
Candida albicans [5] = assay: Synergistic antifungal activity against fluconazole-resistant Candida albicans 904 assessed as inhibition of fungal growth in presence of fluconazole by checker board microdilution assay; assay type: functional
Candida albicans [6] = assay: Synergistic antifungal activity against fluconazole-resistant Candida albicans 632 assessed as inhibition of fungal growth in presence of fluconazole by checker board microdilution assay; assay type: functional
Candida albicans [7] = assay: Synergistic antifungal activity against fluconazole-resistant Candida albicans 901 assessed as inhibition of fungal growth in presence of fluconazole by checker board microdilution assay; assay type: functional
Candida albicans [8] = assay: Synergistic antifungal activity against fluconazole-resistant Candida albicans 100 assessed as inhibition of fungal growth in presence of fluconazole by checker board microdilution assay; assay type: functional
Candida albicans [9] = assay: Synergistic antifungal activity against fluconazole-resistant Candida albicans 103 assessed as inhibition of fungal growth in presence of fluconazole by checker board microdilution assay; assay type: functional
Candida albicans [10] = assay: Synergistic antifungal activity against fluconazole-resistant Candida albicans 311 assessed as inhibition of fungal growth in presence of fluconazole by checker board microdilution assay; assay type: functional
Heat shock protein HSP90 = Heat shock protein HSP90 (Homo sapiens, UniProt P07900+P08238); assay: Binding affinity to human Hsp90 expressed in Escherichia coli by SPR assay
[11] = Binding affinity to recombinant Candida albicans Hsp90 NBD expressed in Escherichia coli by SPR assay
A549 = assay: Cytotoxicity against human A549 cell assessed as inhibition of cell growth after 24 hrs by MTT assay; assay type: functional, cell-based; conditions: A549, 24 h
[12] = Stability in human plasma assessed as compound remaining at 120 mins by LC-MS/MS analysis; assay type: ADME, cell-free; conditions: read-out: Stability
RAW264.7 = assay: Cytotoxicity against mouse RAW264.7 cell assessed as inhibition of cell growth after 24 hrs by MTT assay; assay type: functional, cell-based; conditions: RAW264.7, 24 h
MCF7 = assay: Cytotoxicity against human MCF7 cell assessed as inhibition of cell growth after 24 hrs by MTT assay; assay type: functional, cell-based; conditions: MCF7, 24 h
Candida albicans [13] = assay: Antifungal activity against fluconazole-resistant Candida albicans 311 assessed as inhibition of fungal growth by checker board microdilution assay; assay type: functional
Candida albicans [14] = assay: Synergetic antifungal activity against fluconazole-resistant Candida albicans 311 assessed as fractional inhibitory concentration index in presence of fluconazole by checker board microdilution assay; assay type: functional
Candida albicans [15] = assay: Antifungal activity against fluconazole-resistant Candida albicans 904 assessed as inhibition of fungal growth by checker board microdilution assay; assay type: functional
Candida albicans [16] = assay: Synergetic antifungal activity against fluconazole-resistant Candida albicans 904 assessed as fractional inhibitory concentration index in presence of fluconazole by checker board microdilution assay; assay type: functional
[17] = Stability in human plasma assessed as half life at 120 mins by LC-MS/MS analysis; assay type: ADME, cell-free
Candida albicans [18] = assay: Synergetic antifungal activity against fluconazole-resistant Candida albicans 632 assessed as fractional inhibitory concentration index in presence of fluconazole by checker board microdilution assay; assay type: functional
CYP2D6 = CYP2D6 (Homo sapiens, UniProt P10635); assay: Inhibition of CYPD6 in human liver microsome at 10 uM using dextromethorphan as substrate incubated for 10 mins in presence of NADPH cofactor by LC-MS/MS analysis; assay type: ADME; conditions: liver microsomes, probe dextromethorphan
Candida albicans [19] = assay: Potentiation of fluconazole-induced antifungal activity against fluconazole-resistant Candida albicans 103 assessed as fluconazole MIC by checker board microdilution assay; assay type: functional
CYP3A4 = CYP3A4 (Homo sapiens, UniProt P08684); assay: Inhibition of CYP3A4 in human liver microsome at 10 uM using midazolam as substrate incubated for 10 mins in presence of NADPH cofactor by LC-MS/MS analysis; assay type: ADME; conditions: liver microsomes, probe midazolam
Candida albicans [20] = assay: Antifungal activity against fluconazole-resistant Candida albicans 103 assessed as inhibition of fungal growth by checker board microdilution assay; assay type: functional
CYP2C9 = CYP2C9 (Homo sapiens, UniProt P11712); assay: Inhibition of CYP2C9 in human liver microsome at 10 uM using diclofenac as substrate incubated for 10 mins in presence of NADPH cofactor by LC-MS/MS analysis; assay type: ADME; conditions: liver microsomes, probe diclofenac
Candida albicans [21] = assay: Synergetic antifungal activity against fluconazole-resistant Candida albicans 901 assessed as fractional inhibitory concentration index in presence of fluconazole by checker board microdilution assay; assay type: functional
Candida albicans [22] = assay: Synergetic antifungal activity against fluconazole-resistant Candida albicans 103 assessed as fractional inhibitory concentration index in presence of fluconazole by checker board microdilution assay; assay type: functional
CYP1A2 = molecular target: T1, CYP1A2 (Homo sapiens, UniProt P05177); assay: Inhibition of CYP1A2 in human liver microsome at 10 uM using phenacetin as substrate incubated for 10 mins in presence of NADPH cofactor by LC-MS/MS analysis; assay type: ADME; conditions: liver microsomes, probe phenacetin
T1 sequence (P05177 whole entry): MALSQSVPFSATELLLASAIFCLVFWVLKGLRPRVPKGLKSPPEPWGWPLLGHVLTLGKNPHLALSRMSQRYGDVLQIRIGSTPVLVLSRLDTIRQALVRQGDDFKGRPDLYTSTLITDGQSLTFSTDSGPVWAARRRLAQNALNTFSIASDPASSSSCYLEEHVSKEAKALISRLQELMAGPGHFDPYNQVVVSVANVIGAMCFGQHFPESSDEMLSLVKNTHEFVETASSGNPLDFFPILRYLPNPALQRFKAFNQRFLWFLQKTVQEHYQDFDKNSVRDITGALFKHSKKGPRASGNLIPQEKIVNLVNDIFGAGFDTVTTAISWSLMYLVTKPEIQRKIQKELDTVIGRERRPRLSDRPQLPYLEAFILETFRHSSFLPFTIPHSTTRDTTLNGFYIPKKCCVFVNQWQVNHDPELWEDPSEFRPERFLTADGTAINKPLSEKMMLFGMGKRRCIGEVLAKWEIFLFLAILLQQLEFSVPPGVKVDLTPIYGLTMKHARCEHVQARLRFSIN

Candida albicans [23] = assay: Antifungal activity against fluconazole-resistant Candida albicans 632 assessed as inhibition of fungal growth by checker board microdilution assay; assay type: functional
[24] = Cytotoxicity against human BEAS-2B cell assessed as inhibition of cell growth after 24 hrs by MTT assay; assay type: toxicity, cell-based; conditions: BEAS-2B cells
Candida albicans [25] = assay: Potentiation of fluconazole-induced antifungal activity against fluconazole-resistant Candida albicans 632 assessed as fluconazole MIC by checker board microdilution assay; assay type: functional
Candida albicans [26] = assay: Synergetic antifungal activity against fluconazole-resistant Candida albicans 100 assessed as fractional inhibitory concentration index in presence of fluconazole by checker board microdilution assay; assay type: functional
CYP2C19 = CYP2C19 (Homo sapiens, UniProt P33261); assay: Inhibition of CYP2C19 in human liver microsome at 10 uM using S-mephenytoin as substrate incubated for 10 mins in presence of NADPH cofactor by LC-MS/MS analysis; assay type: ADME; conditions: liver microsomes, probe S-mephenytoin
[27] = Cytotoxicity against human THLE-2 cell assessed as inhibition of cell growth after 24 hrs by MTT assay; assay type: toxicity, cell-based; conditions: THLE-2 cells
Candida albicans [28] = assay: Potentiation of fluconazole-induced antifungal activity against fluconazole-resistant Candida albicans 311 assessed as fluconazole MIC by checker board microdilution assay; assay type: functional
[29] = Cytotoxicity against mouse BV-2 cell assessed as inhibition of cell growth after 24 hrs by MTT assay; assay type: toxicity, cell-based; conditions: BV-2 cells
Candida albicans [30] = assay: Potentiation of fluconazole-induced antifungal activity against fluconazole-resistant Candida albicans 100 assessed as fluconazole MIC by checker board microdilution assay; assay type: functional
Candida albicans [31] = assay: Antifungal activity against fluconazole-resistant Candida albicans 901 assessed as inhibition of fungal growth by checker board microdilution assay; assay type: functional
[32] = Cytotoxicity against mouse NIH3T3 cell assessed as inhibition of cell growth after 24 hrs by MTT assay; assay type: toxicity, cell-based; conditions: NIH3T3 cells
Candida albicans [33] = assay: Antifungal activity against fluconazole-resistant Candida albicans 100 assessed as inhibition of fungal growth by checker board microdilution assay; assay type: functional
Candida albicans [34] = assay: Potentiation of fluconazole-induced antifungal activity against fluconazole-resistant Candida albicans 901 assessed as fluconazole MIC by checker board microdilution assay; assay type: functional
Candida albicans [35] = assay: Potentiation of fluconazole-induced antifungal activity against fluconazole-resistant Candida albicans 904 assessed as fluconazole MIC by checker board microdilution assay; assay type: functional
HepG2 = assay: Cytotoxicity against human HepG2 cell assessed as inhibition of cell growth after 24 hrs by MTT assay; assay type: functional, cell-based; conditions: HepG2, 24 h

CYP2C9, sequence (P11712 whole entry): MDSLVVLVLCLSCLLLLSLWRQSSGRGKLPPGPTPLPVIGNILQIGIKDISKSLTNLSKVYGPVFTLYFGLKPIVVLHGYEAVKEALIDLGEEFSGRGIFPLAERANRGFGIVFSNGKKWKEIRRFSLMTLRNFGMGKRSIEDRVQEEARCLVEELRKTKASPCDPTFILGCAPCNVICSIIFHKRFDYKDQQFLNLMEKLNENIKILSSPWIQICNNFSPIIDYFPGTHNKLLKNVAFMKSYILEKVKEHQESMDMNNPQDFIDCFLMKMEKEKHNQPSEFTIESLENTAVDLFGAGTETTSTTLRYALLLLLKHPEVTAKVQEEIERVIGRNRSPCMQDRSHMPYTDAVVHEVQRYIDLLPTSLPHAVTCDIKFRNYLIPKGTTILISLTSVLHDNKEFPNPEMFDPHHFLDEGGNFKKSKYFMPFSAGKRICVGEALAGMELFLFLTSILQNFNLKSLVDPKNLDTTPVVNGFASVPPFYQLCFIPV
CYP2D6, sequence (P10635 whole entry): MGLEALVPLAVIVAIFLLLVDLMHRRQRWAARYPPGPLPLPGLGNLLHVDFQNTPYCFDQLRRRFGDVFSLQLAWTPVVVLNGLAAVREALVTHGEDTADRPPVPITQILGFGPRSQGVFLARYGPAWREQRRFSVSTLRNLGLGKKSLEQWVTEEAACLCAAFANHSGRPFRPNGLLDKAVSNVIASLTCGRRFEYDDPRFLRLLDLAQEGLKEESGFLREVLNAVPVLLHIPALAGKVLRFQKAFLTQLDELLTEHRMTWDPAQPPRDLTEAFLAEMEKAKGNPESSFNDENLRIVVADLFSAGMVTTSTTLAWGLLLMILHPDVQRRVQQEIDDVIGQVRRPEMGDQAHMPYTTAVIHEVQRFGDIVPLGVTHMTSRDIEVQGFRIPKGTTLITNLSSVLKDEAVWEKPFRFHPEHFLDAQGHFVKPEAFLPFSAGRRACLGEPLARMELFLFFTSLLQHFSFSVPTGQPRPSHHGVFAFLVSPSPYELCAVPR
CYP3A4, sequence (P08684 whole entry): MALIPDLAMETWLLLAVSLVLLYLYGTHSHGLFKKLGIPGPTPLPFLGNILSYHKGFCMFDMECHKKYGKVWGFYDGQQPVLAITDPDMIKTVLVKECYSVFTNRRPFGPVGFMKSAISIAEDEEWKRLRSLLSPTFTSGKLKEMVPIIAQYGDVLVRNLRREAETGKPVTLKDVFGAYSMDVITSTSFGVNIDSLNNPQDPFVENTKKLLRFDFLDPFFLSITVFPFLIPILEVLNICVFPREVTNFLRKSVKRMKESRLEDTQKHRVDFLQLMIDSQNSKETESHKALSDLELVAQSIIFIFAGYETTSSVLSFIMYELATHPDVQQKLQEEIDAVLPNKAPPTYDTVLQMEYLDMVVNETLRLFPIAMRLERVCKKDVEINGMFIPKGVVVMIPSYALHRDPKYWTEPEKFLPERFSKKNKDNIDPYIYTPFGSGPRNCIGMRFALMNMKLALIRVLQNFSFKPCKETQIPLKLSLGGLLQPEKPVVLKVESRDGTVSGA
CYP2C19, sequence (P33261 whole entry): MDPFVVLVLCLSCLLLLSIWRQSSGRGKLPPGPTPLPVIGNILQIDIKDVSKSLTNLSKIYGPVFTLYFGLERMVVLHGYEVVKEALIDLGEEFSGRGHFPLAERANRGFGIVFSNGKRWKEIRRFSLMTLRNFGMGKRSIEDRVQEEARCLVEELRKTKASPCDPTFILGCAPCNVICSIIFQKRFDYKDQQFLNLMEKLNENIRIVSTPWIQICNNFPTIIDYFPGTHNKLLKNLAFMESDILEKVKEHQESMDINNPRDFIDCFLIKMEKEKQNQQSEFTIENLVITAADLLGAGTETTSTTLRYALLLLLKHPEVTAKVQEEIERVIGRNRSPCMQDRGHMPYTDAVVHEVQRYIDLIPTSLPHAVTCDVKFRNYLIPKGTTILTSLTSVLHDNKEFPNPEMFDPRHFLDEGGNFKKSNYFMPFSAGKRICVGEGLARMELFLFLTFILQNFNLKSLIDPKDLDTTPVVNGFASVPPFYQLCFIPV

`CCNC(=O)c1noc(-c2cc(-c3cccc(CC)c3)c(O)cc2O)c1-c1ccc(CN2CCOCC2)cc1` gave a CLint [1] of 72.7 mL/min/kg, a CLint [2] of 80.7 µL/min/mg and a remaining at 1.167 h [3] of 9.2%. For the same compound, the half-life [4] was 17.2 min, the MIC80 (Candida albicans [5]) was 0.5 µg/mL and the MIC80 (Candida albicans [6]) was 0.5 µg/mL. The MIC80 (Candida albicans [7]) was 0.25 µg/mL, the MIC80 (Candida albicans [8]) was 0.25 µg/mL and the MIC80 (Candida albicans [9]) was 1 µg/mL. It also gave an MIC80 (Candida albicans [10]) of 0.5 µg/mL.

With `CCNC(=O)c1noc(-c2cc(-c3cccc(C(C)C)c3)c(O)cc2O)c1-c1ccc(CN2CCOCC2)cc1` the CLint [1] was 82.7 mL/min/kg, the Kd (Heat shock protein HSP90) was greater than 25 µM and the Kd [11] was 0.476 µM. It also gave a CLint [2] of 91.9 µL/min/mg, a remaining at 1.167 h [3] of 6.1% and a half-life [4] of 15.1 min. For the same compound, the MIC80 (Candida albicans [5]) was 0.25 µg/mL, the MIC80 (Candida albicans [6]) was 0.5 µg/mL and the MIC80 (Candida albicans [7]) was 0.25 µg/mL. It also gave an MIC80 (Candida albicans [8]) of 0.25 µg/mL, an MIC80 (Candida albicans [9]) of 0.25 µg/mL and an MIC80 (Candida albicans [10]) of 0.5 µg/mL.

Compound `CNC(=O)c1noc(-c2cc(-c3ccc(C)cc3)c(O)cc2O)c1-c1ccc(CN2CCCCC2)cc1` has an IC50 (A549) of 10.8 µM, a remaining at 2 h [12] of 55.2% and a CLint [1] of 28.8 mL/min/kg. The CLint [2] was 32 µL/min/mg, the IC50 (RAW264.7) was 3.65 µM and the IC50 (MCF7) was 15.6 µM. It also gave a remaining at 1.167 h [3] of 38.3%, an MIC80 (Candida albicans [13]) greater than 64 µg/mL and a half-life [4] of 43.3 min. For the same compound, the MIC80 (Candida albicans [5]) was 0.125 µg/mL, the “fractional inhibitory concentration index (FICI)” value (Candida albicans [14]) was 0.023 and the MIC80 (Candida albicans [15]) was greater than 64 µg/mL. For the same compound, the “fractional inhibitory concentration index (FICI)” value (Candida albicans [16]) was 0.01, the half-life [17] was 131 min and the “fractional inhibitory concentration index (FICI)” value (Candida albicans [18]) was 0.062. The inhibition at 10 min, 10 µM (CYP2D6) was 24.8%, the MIC80 (Candida albicans [19]) was 2 µg/mL and the inhibition at 10 min, 10 µM (CYP3A4) was 17.7%. The MIC80 (Candida albicans [20]) was greater than 64 µg/mL, the inhibition at 10 min, 10 µM (CYP2C9) was 44.6% and the “fractional inhibitory concentration index (FICI)” value (Candida albicans [21]) was 0.02. The “fractional inhibitory concentration index (FICI)” value (Candida albicans [22]) was 0.039, the inhibition at 10 min, 10 µM (CYP1A2) was 17.7% and the MIC80 (Candida albicans [23]) was greater than 64 µg/mL. For the same compound, the MIC80 (Candida albicans [6]) was 2 µg/mL, the MIC80 (Candida albicans [7]) was 0.25 µg/mL and the MIC80 (Candida albicans [8]) was 1 µg/mL. The IC50 at 24 h [24] was 11.6 µM, the MIC80 (Candida albicans [25]) was 2 µg/mL and the “fractional inhibitory concentration index (FICI)” value (Candida albicans [26]) was 0.047. The MIC80 (Candida albicans [9]) was 0.5 µg/mL, the inhibition at 10 min, 10 µM (CYP2C19) was 48.5% and the IC50 at 24 h [27] was 2.79 µM. The MIC80 (Candida albicans [28]) was 1 µg/mL, the MIC80 (Candida albicans [10]) was 0.5 µg/mL and the IC50 at 24 h [29] was 3.04 µM. The MIC80 (Candida albicans [30]) was 2 µg/mL, the MIC80 (Candida albicans [31]) was greater than 64 µg/mL and the IC50 at 24 h [32] was 0.46 µM. The MIC80 (Candida albicans [33]) was greater than 64 µg/mL, the MIC80 (Candida albicans [34]) was 1 µg/mL and the MIC80 (Candida albicans [35]) was 0.5 µg/mL. It also gave an IC50 (HepG2) of 24.9 µM.
